Laboratory results reported in patent publication US20160355530A1, “HEPATITIS C INHIBITORS AND USES THEREOF” (AbbVie Inc., priority 2010, published 2016).
pEC50, pIC50: −log10 of the molar value. Where two headings read alike, the source gives them in different places.

What was measured:
[1] = target: T1, HCV NS5B polymerase 1a-H77 (Hepatitis C virus genotype 1a, UniProt P27958); experiment: biochemical; set-up: species or system HCV genotype 1a; conditions: enzyme, strain 1a H77; read-out: HCV Polymerase Strain 1a H77 IC50
T1 construct: six-histidine tag; made in house; host or cells: E. coli
T1 sequence (P27958 2421-2990): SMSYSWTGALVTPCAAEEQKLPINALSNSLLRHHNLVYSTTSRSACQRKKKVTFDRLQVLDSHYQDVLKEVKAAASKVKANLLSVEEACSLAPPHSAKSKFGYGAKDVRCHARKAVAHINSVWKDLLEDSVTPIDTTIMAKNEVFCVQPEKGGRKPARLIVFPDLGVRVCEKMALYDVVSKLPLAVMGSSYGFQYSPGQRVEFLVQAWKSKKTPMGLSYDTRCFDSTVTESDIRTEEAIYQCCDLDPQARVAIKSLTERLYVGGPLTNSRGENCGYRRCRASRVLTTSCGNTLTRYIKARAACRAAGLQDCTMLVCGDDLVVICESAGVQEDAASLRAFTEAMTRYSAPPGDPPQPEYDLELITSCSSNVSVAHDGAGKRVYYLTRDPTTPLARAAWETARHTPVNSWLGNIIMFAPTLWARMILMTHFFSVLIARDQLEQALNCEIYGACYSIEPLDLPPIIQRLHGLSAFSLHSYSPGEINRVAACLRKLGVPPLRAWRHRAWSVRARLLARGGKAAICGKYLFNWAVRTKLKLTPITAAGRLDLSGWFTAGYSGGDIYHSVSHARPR
Method in brief: (§1)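 E. coli-expressed NS5B (residues 1-570, His-tagged) transcribed a 2.1 kb HCV 1b negative-strand 3′-end RNA template (5 nM) with 20 μM CTP, 20 μM ATP and 0.284 μM [3H]UTP for 3 h at 30° C. Spermine-precipitated RNA was filter-captured and counted by scintillation; IC50 from nonlinear regression.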

[2] = target: T2, HCV NS5B polymerase 1a-H77-C316Y (Hepatitis C virus genotype 1a, UniProt P27958, C2736Y); experiment: biochemical; set-up: species or system HCV genotype 1a
T2 construct: six-histidine tag; made in house; host or cells: E. coli
T2 sequence (P27958 2421-2990 C2736Y): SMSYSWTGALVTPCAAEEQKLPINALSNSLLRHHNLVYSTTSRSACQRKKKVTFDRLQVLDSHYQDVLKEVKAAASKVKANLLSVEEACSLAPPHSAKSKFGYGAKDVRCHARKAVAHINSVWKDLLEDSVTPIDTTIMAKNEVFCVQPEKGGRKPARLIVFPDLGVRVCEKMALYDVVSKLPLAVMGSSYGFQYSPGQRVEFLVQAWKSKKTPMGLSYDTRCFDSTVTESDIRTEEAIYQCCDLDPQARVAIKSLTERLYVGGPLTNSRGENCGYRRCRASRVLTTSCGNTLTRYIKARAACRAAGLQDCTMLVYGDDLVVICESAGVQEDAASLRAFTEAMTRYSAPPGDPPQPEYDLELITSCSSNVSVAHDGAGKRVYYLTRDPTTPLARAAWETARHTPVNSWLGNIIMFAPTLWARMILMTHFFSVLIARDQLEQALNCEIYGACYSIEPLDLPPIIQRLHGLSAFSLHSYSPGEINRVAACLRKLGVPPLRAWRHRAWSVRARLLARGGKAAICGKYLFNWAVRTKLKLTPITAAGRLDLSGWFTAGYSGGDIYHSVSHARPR
Method in brief: as §1

[3] = test system: HCV NS5B polymerase 1a-H77-C316Y; experiment: biochemical; set-up: species or system HCV genotype 1a; conditions: ratio of enzyme IC50s, 1a H77-C316Y / 1a H77
Method in brief: as §1

[4] = target: T3, HCV NS5B polymerase 1b BK strain (Hepatitis C virus genotype 1b, UniProt P26663); experiment: HCV NS5B polymerase enzymatic inhibition assay, strain 1b BK; format: biochemical; conditions: enzyme, strain 1b BK; read-out: HCV Polymerase Strain 1b BK IC50
T3 construct: six-histidine tag; made in house; host or cells: E. coli
T3 sequence (P26663 2420-2989): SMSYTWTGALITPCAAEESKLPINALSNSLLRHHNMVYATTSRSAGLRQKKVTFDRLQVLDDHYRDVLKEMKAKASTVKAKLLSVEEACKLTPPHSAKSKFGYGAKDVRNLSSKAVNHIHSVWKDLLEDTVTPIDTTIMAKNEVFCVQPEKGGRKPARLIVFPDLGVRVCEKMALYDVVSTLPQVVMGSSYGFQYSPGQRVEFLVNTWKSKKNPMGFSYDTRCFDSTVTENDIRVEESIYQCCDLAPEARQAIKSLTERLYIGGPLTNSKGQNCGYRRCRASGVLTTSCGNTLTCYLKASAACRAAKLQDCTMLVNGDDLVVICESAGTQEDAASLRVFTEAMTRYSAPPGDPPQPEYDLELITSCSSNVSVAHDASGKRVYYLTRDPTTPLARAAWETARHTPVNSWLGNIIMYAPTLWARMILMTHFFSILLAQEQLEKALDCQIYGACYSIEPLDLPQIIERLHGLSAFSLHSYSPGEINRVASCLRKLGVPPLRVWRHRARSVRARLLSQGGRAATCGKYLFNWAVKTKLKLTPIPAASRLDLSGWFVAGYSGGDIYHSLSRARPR
Method in brief: as §1

[5] = test system: HCV 1a-H77 subgenomic replicon; experiment: microbe, parasite or virus in culture; format: cell-based, HCV genotype 1a; conditions: Hepatitis C virus, stable replicon
[6] = test system: chimeric replicon with 2a-J6CF-derived NS5B; experiment: microbe, parasite or virus in culture; format: cell-based, HCV genotype 2a; conditions: Hepatitis C virus, read-out: 2a chimera 5% FBS EC50
[7] = test system: chimeric replicon with genotype 2b NS5B; experiment: microbe, parasite or virus in culture; format: cell-based, HCV genotype 2b; conditions: Hepatitis C virus, read-out: 2b chimera 5% FBS EC50
[8] = test system: chimeric replicon with genotype 3a NS5B; experiment: microbe, parasite or virus in culture; format: cell-based, HCV genotype 3a; conditions: Hepatitis C virus, read-out: 3a chimera 5% FBS EC50
[9] = test system: HCV 1a-H77 transient subgenomic replicon in Huh-7 derived cell line; experiment: microbe, parasite or virus in culture; format: cell-based, HCV genotype 1a; conditions: Hepatitis C virus, Huh-7; transient replicon, 5% FBS; read-out: Transient Replicon 1a H77 5% FBS EC50
Method in brief: (§2)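 Subgenomic replicon RNA (no Neo gene) electroporated into Huh-7-derived cells, plated at 5×10^3 cells/well; a 4 h plate gauged transfection efficiency. Cells exposed to 3-fold compound dilutions (0.5% DMSO) for 4 days at 37° C, then lysed for luciferase readout; EC50 calculated.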

[10] = test system: HCV 1a-H77-C316Y transient subgenomic replicon in Huh-7 derived cell line; experiment: microbe, parasite or virus in culture; format: cell-based, HCV genotype 1a; conditions: for pEC50: Hepatitis C virus, Huh-7, read-out: Transient Replicon 1a H77-C316Y 5% FBS EC50; for Transient Replicon Fold Resistance C316Y/1a: ratio of transient replicon EC50s, C316Y / 1a H77
Method in brief: as §2

[11] = 5% FBS, absence of human plasma, read-out: Stable Replicon 1a H77 5% FBS EC50
[12] = strain 1a H77, 5% FBS + 40% human plasma, read-out: 1a H77 5% FBS + 40% Human Plasma EC50
[13] = strain 1a H77, 5% FBS, no human plasma, read-out: 1a H77 5% FBS EC50
[14] = strain 1a H77, 5% FBS, read-out: 1a H77 5% FBS EC50

SMILES | pIC50 [1] | pIC50 [2] | C316Y/1a Fold Resistance [3] [fold] | pIC50 [4] | pEC50 [5, 11] | pEC50 [5, 12] | pEC50 [5, 13] | pEC50 [5, 14] | pEC50 [6] | pEC50 [7] | pEC50 [8] | pEC50 [9] | pEC50 [10] | Transient Replicon Fold Resistance C316Y/1a [10] [fold]
CS(=O)(=O)CCCCN(c1cc2oc(-c3ccc(Nc4ccccc4)cc3)c(-c3ncc[nH]3)c2cc1C1CC1)S(C)(=O)=O [Example 169, N-[2-(4-anilinophenyl)-5-cyclopropyl-3-(1H-imidazol-2-yl)-1-benzofuran-6-yl]-N-[4-(methylsulfonyl)butyl]methanesulfonamide] | 8.22 | 7.70 | 3 | 7.41 | 8.68 | 7.83 | 8.68 | 8.67 | 7.77 | 7.91 | 7.82 | 9.22 | 8.39 | 6
CS(=O)(=O)N(CCO)c1cc2oc(-c3ccc(F)cc3)c(-c3ncc[nH]3)c2cc1C1CC1 [Example 109, N-[5-cyclopropyl-2-(4-fluorophenyl)-3-(1H-imidazol-2-yl)-1-benzofuran-6-yl]-N-(2-hydroxyethyl)methanesulfonamide] | 8.23 | 6.27 | 90 | 7.21 | 7.70 | 6.38 | 7.70 | 7.70 | 6.94 | 6.92 | 8.17 | 7.42 | 5.89 | 34
CCCC/C=C/c1ccc(-c2oc3cc(N(CCCCS(C)(=O)=O)S(C)(=O)=O)c(C4CC4)cc3c2-c2ncc[nH]2)cc1 [Example 168, N-[5-cyclopropyl-2-{4-[(1E)-hex-1-en-1-yl]phenyl}-3-(1H-imidazol-2-yl)-1-benzofuran-6-yl]-N-[4-(methylsulfonyl)butyl]methanesulfonamide] | 8.31 | 8.07 | 2 | 7.41 | 8.74 | 7.74 | 8.74 | 8.74 | 8.22 | 7.88 | 7.90 | 9.22 | 7.84 | 24
CS(=O)(=O)N(CCO)c1cc2oc(-c3ccc(F)cc3)c(C3=NOCCN3)c2cc1C1CC1 [Example 136, N-[5-cyclopropyl-3-(5,6-dihydro-4H-1,2,4-oxadiazin-3-yl)-2-(4-fluorophenyl)-1-benzofuran-6-yl]-N-(2-hydroxyethyl)methanesulfonamide] | 8.19 | 6.59 | 40 | 6.70 | 7.58 | 6.46 | 7.58 | 7.58 | 6.69 | 6.37 | 7.38 | 7.49 | 6.17 | 21
